Measurements reported in patent publication US4324788A, “Alkoxyalkylidenhydrazinopridazines and process for their preparation” (I.S.F. S.p.A., priority 1979, dated 1982).
Structures can show the parent of a compound that is named as a salt. Where two headings read alike, the source gives them in different places.

What was measured:
[1] = system: genetically hypertensive rats; test: Arterial pressure and heart rate per os in genetically hypertensive rats (SHR); format: in vivo, rat (genetically hypertensive; conditions: for HR DE25 (ED25, dose giving an increase of the heart rate of 25%): > = no increase of the heart rate at the maximal tested dose; for ED25: po, read-out: BP DE25 (ED25, dose giving a drop of the blood pressure of 25%)
Source text: activity on the arterial pressure and on the heart rate has been studied per os in genetically hypertensive rats according to the method described in Pharm. Research Comm.

[2] = system: strips of rabbit aorta; test: Spasmolytic activity in vitro on strips of rabbit aorta with potassium chloride induced spasm; format: cell-based; conditions: Oryctolagus cuniculus, spasm with 30 mM potassium chloride, read-out: EC50 (relaxing 50% the strip of rabbit aorta)
Procedure: spasmolytic activity is determined evaluating the direct relaxant effect on the vasal smooth muscle in vitro on strips of rabbit aorta in which spasm was induced by potassium chloride according to the method described in Journ. of Pharm. and Exper. […] The products were added at sequentially cumulative molar doses and their activity indicated as Effective Concentration (EC50).

[3] = in vivo; conditions: mouse, ip
[4] = system: guinea-pig isolated atria; conditions: isoprenaline agonist, product at 10^-4 M
[5] = SHR rat, per os, at the moment of maximum effect

| SMILES | HR DE25 (ED25, dose giving an increase of the heart rate of 25%) ([1]; SHR rat, per os) [mg/kg/os] | ED25 [1, 5] [mg/kg] | EC50 [2] [mM] | LD50 [3] [mg/kg] | DR4 (dose ratio of agonist EC50 in the presence and in the absence of the product) [4] | ED25 ([1]; Rattus norvegicus) [mg/kg] |
| --- | --- | --- | --- | --- | --- | --- |
| CC(C)=NNc1ccc(OCC(O)CNC(C)C)nn1.Cl.Cl (stereo not drawn) [3-(3-Isopropylamino-2-hydroxypropoxy)-6-isopropylidenhydrazinopyridazine dihydrochloride] | > 100 | 350 | 1.7 | 500 | 77 | – |
| CC(C)=NNc1ccc(OCC(O)CNC(C)(C)C)nn1 (stereo not drawn) [3-(3-t.Butylamino-2-hydroxypropoxy)-6-isopropylidenhydrazinopyridazine dihydrochloride] | > 100 | 50 | – | 500 | 78 | – |
| CCC(C)NCC(O)COc1ccc(NN=C(C)C)nn1.Cl.Cl (stereo not drawn) [3-[3-(2-butyl)amino-2-hydroxypropoxy]6-isopropylidenhydrazinopyridazine dihydrochloride] | > 50 | 25 | – | 300 | 72 | – |
| CC(C)=NNc1ccc(OCC(O)CNC(C)CCc2ccccc2)nn1.Cl.Cl (stereo not drawn) [3-[3-(4-phenyl-2-butyl)amino-2-hydroxypropoxy]6-isopropylidenhydrazinopyridazine dihydrochloride] | > 40 | 17 | – | 200 | 80 | – |
| COc1ccc(CCNCC(O)COc2ccc(NN=C(C)C)nn2)cc1OC.Cl.Cl (stereo not drawn) [3-{3[2(3,4-dimethoxyphenyl)ethyl]amino-2-hydroxypropoxy}6-isopropylidenhydrazinopyridazine dihydrochloride] | > 60 | 39 | – | 300 | 531 | – |
| NNc1nncc2ccccc12 [Hydralazine, reference compound] | 6.0 | 8.1 | 0.68 | – | 1 | – |
| CC(CCc1ccccc1)NCC(O)c1ccc(O)c(C(N)=O)c1 (stereo not drawn) [Labetalol, reference compound] | > 100 | 400 | > 10 | – | – | – |
| CC(C)NCC(O)COc1cccc2ccccc12 (stereo not drawn) [Propanolol, reference compound] | > 100 | – | – | – | – | > 400 |
